US20190010158A1, “ANTITUMOR EFFECT POTENTIATOR COMPRISING PYRROLOPYRIMIDINE COMPOUND” (TAIHO PHARMACEUTICAL CO., LTD, priority 2015, published 2019)

Columns and labels:
[1] = system: human breast cancer MDA-MB-453 cell line; test: Cell growth inhibition 2, MDA-MB-453; format: cell-based
[2] = system: human acute leukemia MV-4-11 cell line; test: Cell growth inhibition 2, MV-4-11; format: cell-based; details: MV4-11
[3] = system: human colon cancer HCT116 cell line; test: Cell growth inhibition 2, HCT116; format: cell-based; details: HCT-116
[4] = system: human pancreatic cancer Capan-1 cell line; test: Cell growth inhibition 2, Capan-1; format: cell-based
[5] = system: human diffuse large B-cell lymphoma DB cell line; test: Cell growth inhibition 2, DB; format: cell-based
[6] = system: human multiple myeloma U266B1 cell line; test: Cell growth inhibition 2, U266B1; format: cell-based
[7] = system: human lung cancer A-427 cell line; test: Cell growth inhibition 2, A-427; format: cell-based
[8] = system: human prostate cancer LNCAP.FGC cell line; test: Cell growth inhibition 2, LNCaP.FGC; format: cell-based
[9] = system: human osteo- and soft tissue sarcoma SJCRH30 cell line; test: Cell growth inhibition 2, SJCRH30; format: cell-based
[10] = system: human skin cancer A-431 cell line; test: Cell growth inhibition 2, A-431; format: cell-based
[11] = system: human acute T lymphoblastic leukemia CCRF-CEM cell lines; test: Cell growth inhibition 1 (CellTiter-Glo); format: cell-based; details: culture with test compound 72 hours
[12] = system: tumor cell lines shown in Table 30; test: Example 5: combined use with steroid, cell growth inhibition test (IC50 ratio, CI); details: MM.1S; for IC50 Ratio: IC50 of Reference Example Compound 55 : IC50 of other compound = 1:value; for CI: at ED50; for Comprehensive Evaluation: combined use with Reference Example Compound 55
[13] = system: tumor cell lines shown in Table 32; test: Example 6: combined use with immunomodulator, cell growth inhibition test (IC50 ratio, CI); format: cell-based; details: MM.1S; for IC50 Ratio: IC50 of Reference Example Compound 55 : IC50 of other compound = 1:value; for CI: at ED50; for Comprehensive Evaluation: combined use with Reference Example Compound 55
[14] = system: tumor cell lines shown in Table 46; test: Example 13: combined use with microtubule inhibitor, cell growth inhibition test (IC50 ratio, CI); format: cell-based; details: A549; for IC50 Ratio: IC50 of Reference Example Compound 55 : IC50 of other compound = 1:value; for CI: at ED50; for Comprehensive Evaluation: combined use with Reference Example Compound 55
[15] = system: tumor cell lines shown in Table 48; test: Example 14: combined use with alkylating agent, cell growth inhibition test (IC50 ratio, CI); format: cell-based; details: for IC50 Ratio: IC50 of Reference Example Compound 55 : IC50 of other compound = 1:value; for CI: at ED50; for Comprehensive Evaluation: combined use with Reference Example Compound 55
U266B1 = test: Example 1: combined use with proteasome inhibitor, cell growth inhibition test (IC50 ratio, CI), U266B1; format: cell-based, human; details: for CI: at ED50
[16] = system: tumor cell lines shown in Table 50; test: Example 15: combined use with anthracycline-based antitumor agent, cell growth inhibition test (IC50 ratio, CI); details: for IC50 Ratio: IC50 of Reference Example Compound 55 : IC50 of other compound = 1:value; for CI: at ED50; for Comprehensive Evaluation: combined use with Reference Example Compound 55
[17] = Reference Example Compound 55:other compound 1:1
[18] = MV4-11, Reference Example Compound 55:other compound 1:3000
[19] = MV4-11, Reference Example Compound 55:other compound 1:9000
[20] = Reference Example Compound 55:other compound 1:10

With `CNc1cc(F)c(C#Cc2cn([C@@H]3O[C@H](CNS(N)(=O)=O)[C@@H](O)[C@H]3O)c3ncnc(N)c23)c(F)c1` [Reference Example 25, 4-Amino-5-[2-[2,6-difluoro-4-(methylamino)phenyl]ethynyl]-7-[(2R,3R,4S,5R)-3,4-dihydroxy-5-[(sulfamoylamino)methyl]tetrahydrofuran-2-yl]pyrrolo[2,3-d]pyrimidine] the IC50 [1] was 480 nM, the IC50 [2] was 11 nM and the IC50 [3] was 6.4 nM. It also gave an IC50 [4] of 380 nM, an IC50 [5] of 120 nM and an IC50 [6] of 220 nM. It also gave an IC50 [7] of 5.4 nM, an IC50 [8] of 500 nM and an IC50 [9] of 5100 nM. For the same compound, the IC50 [10] was 120 nM and the IC50 [11] was 1.7 nM.

`C[C@@H]1C[C@H]2[C@@H]3CCC4=CC(=O)C=C[C@]4(C)[C@@]3(F)[C@@H](O)C[C@]2(C)[C@@]1(O)C(=O)CO` [Dexamethasone, dexamethasone] was tested, and the “IC50 Ratio” value [12] was 0.4, the CI ([12]; Reference Example Compound 55:other compound 1:0.3) was 0.51 and the CI [12, 17] was 0.39. The “Comprehensive Evaluation” value [12] was “Synergism (0.3-0.7)”.

`Nc1ncnc2c1c(C#Cc1c(F)cc(N3CC[C@@H](F)C3)cc1F)cn2[C@@H]1O[C@H](CNS(N)(=O)=O)[C@@H](O)[C@H]1O` [Reference Example 29, 4-Amino-5-[2-[2,6-difluoro-4-[(3R)-3-fluoropyrrolidin-1-yl]phenyl]ethynyl]-7-[(2R,3R,4S,5R)-3,4-dihydroxy-5-[(sulfamoylamino)methyl]tetrahydrofuran-2-yl]pyrrolo[2,3-d]pyrimidine] was tested, and the IC50 [1] was 640 nM, the IC50 [2] was 20 nM and the IC50 [3] was 14 nM. It also gave an IC50 [4] of 560 nM, an IC50 [5] of 150 nM and an IC50 [6] of 420 nM. The IC50 [7] was 49 nM, the IC50 [8] was 280 nM and the IC50 [9] was 6600 nM. The IC50 [10] was 560 nM and the IC50 [11] was 4 nM.

With `CN1CCOc2c1ccc(F)c2C#Cc1cn([C@@H]2C[C@H](CNS(N)(=O)=O)[C@@H](O)[C@H]2O)c2ncnc(N)c12` [Reference Example 122, 8-[2-[4-amino-7-[(1R,2S,3R,4R)-2,3-dihydroxy-4-[(sulfamoylamino)methyl]cyclopentyl]pyrrolo[2,3-d]pyrimidin-5-yl]ethynyl]-7-fluoro-4-methyl-2,3-dihydro-1,4-benzoxazine] the IC50 [1] was 76 nM, the IC50 [2] was 38 nM and the IC50 [3] was 18 nM. The IC50 [4] was 890 nM, the IC50 [5] was 120 nM and the IC50 [6] was 270 nM. For the same compound, the IC50 [7] was 22 nM, the IC50 [8] was 510 nM and the IC50 [9] was 130 nM. It also gave an IC50 [10] of 1600 nM and an IC50 [11] of 8.8 nM.

With `O=C1CCC(N2C(=O)c3ccccc3C2=O)C(=O)N1` (centres unmarked) [Thalidomide, thalidomide] the “IC50 Ratio” value [13] was 6603, the CI ([13]; Reference Example Compound 55:other compound 1:900 (only ratio calculated)) was 0.63 and the “Comprehensive Evaluation” value [13] was “Synergism (0.3-0.7)”.

Work on `NS(=O)(=O)OC[C@@H]1C[C@@H](n2ccc3c(N[C@H]4CCc5ccccc54)ncnc32)CC1O` (stereo partly drawn) [Comp. Example, N-[(1S)-1-indanyl]-7-[(1R)-3α-hydroxy-4α-(sulfamoyloxymethyl)cyclopentyl]-7H-pyrrolo[2,3-d]pyrimidin-4-amine] yielded an IC50 [1] of 1900 nM, an IC50 [2] of 110 nM and an IC50 [3] of 89 nM. The IC50 [4] was 1500 nM, the IC50 [5] was 560 nM and the IC50 [6] was 1400 nM. The IC50 [7] was 180 nM, the IC50 [8] was 410 nM and the IC50 [10] was 750 nM. The IC50 [11] was 89 nM.

For `CC(=O)O[C@H]1C(=O)[C@@]2(C)[C@H]([C@H](OC(=O)c3ccccc3)[C@]3(O)C[C@H](OC(=O)[C@H](O)[C@@H](NC(=O)c4ccccc4)c4ccccc4)C(C)=C1C3(C)C)[C@]1(OC(C)=O)CO[C@@H]1C[C@@H]2O` [Paclitaxel, paclitaxel], the “IC50 Ratio” value [14] was 0.04, the CI ([14]; Reference Example Compound 55:other compound 1:0.02) was 0.98 and the CI ([14]; Reference Example Compound 55:other compound 1:0.06) was 0.77. The “Comprehensive Evaluation” value [14] was “Additive (0.9-1.10)”.

For `CN(C)/N=N/c1[nH]cnc1C(N)=O` [Dacarbazine, dacarbazine], the “IC50 Ratio” value ([15]; MV4-11) was 6582, the CI [15, 18] was 0.92 and the CI [15, 19] was 0.95. For the same compound, the “Comprehensive Evaluation” value ([15]; MV4-11) was “Additive (0.9-1.10)”.

For `O=P1(NCCCl)OCCCN1CCCl` (centres unmarked) [Ifosfamide, ifosfamide], the “IC50 Ratio” value ([15]; MV4-11) was 6315, the CI [15, 18] was 0.57 and the CI [15, 19] was 0.60. The “Comprehensive Evaluation” value ([15]; MV4-11) was “Synergism (0.3-0.7)”.

For `CC(C)C[C@H](NC(=O)[C@H](CCc1ccccc1)NC(=O)CN1CCOCC1)C(=O)N[C@@H](Cc1ccccc1)C(=O)N[C@@H](CC(C)C)C(=O)[C@@]1(C)CO1` [Carfilzomib, carfilzomib], the “IC50 Ratio” value (U266B1; IC50 of Reference Example Compound 55 : IC50 of other compound = 1:value) was 0.30, the CI (U266B1; Reference Example Compound 55:other compound 1:015) was 0.64 and the CI (U266B1; Reference Example Compound 55:other compound 1:045) was 0.66. For the same compound, the “Comprehensive Evaluation” value (U266B1; combined use with Reference Example Compound 55) was “Synergism (0.3-0.7)”.

In the case of `COc1cc2c(cc1O)CCN[C@]21CS[C@@H]2c3c(OC(C)=O)c(C)c4c(c3[C@H](COC1=O)N1[C@@H]2[C@H]2c3c(cc(C)c(OC)c3O)C[C@@H]([C@@H]1O)N2C)OCO4` [Trabectedin, trabectedin], the “IC50 Ratio” value ([15]; HOS) is reported as 0.2, the CI ([15]; HOS, Reference Example Compound 55:other compound 1:0.1) is reported as 0.83 and the CI ([15]; HOS, Reference Example Compound 55:other compound 1:0.3) is reported as 1.01. The “Comprehensive Evaluation” value ([15]; HOS) was “Additive (0.9-1.10)”.

`NCCNc1ccc(NCCN)c2c1C(=O)c1ccncc1C2=O` [Pixantrone, pixantrone] was tested, and the “IC50 Ratio” value ([16]; MM.1S) was 8.4, the CI ([16]; MM.1S, Reference Example Compound 55:other compound 1:3.7) was 0.73 and the CI ([16]; MM.1S, Reference Example Compound 55:other compound 1:11) was 0.84. The “Comprehensive Evaluation” value ([16]; MM.1S) was “Moderate”.

In the case of `Nc1cccc2c1C(=O)N(C1CCC(=O)NC1=O)C2=O` (centres unmarked) [Poma1idomide, pomalidomide], the “IC50 Ratio” value [13] is reported as 3, the CI [13, 17] is reported as 0.81 and the CI ([13]; Reference Example Compound 55:other compound 1:3) is reported as 0.66. For the same compound, the “Comprehensive Evaluation” value [13] was “Moderate”.

In the case of `COc1cccc2c1C(=O)c1c(O)c3c(c(O)c1C2=O)C[C@@](O)(C(=O)CO)C[C@@H]3O[C@H]1C[C@H](N)[C@H](O)[C@H](C)O1` [Doxorubicin, doxorubicin], the “IC50 Ratio” value ([16]; HOS) is reported as 2, the CI ([16]; HOS, Reference Example Compound 55:other compound 1:1.7) is reported as 0.77 and the CI ([16]; HOS, Reference Example Compound 55:other compound 1:5) is reported as 0.61. For the same compound, the “Comprehensive Evaluation” value ([16]; HOS) was “Moderate”.

In the case of `C[C@]12C=CC(=O)C=C1CC[C@@H]1[C@@H]2[C@@H](O)C[C@@]2(C)[C@H]1CC[C@]2(O)C(=O)CO` [Prednisolone, prednisolone], the “IC50 Ratio” value [12] is reported as 8.3, the CI ([12]; Reference Example Compound 55:other compound 1:3.3) is reported as 0.54 and the CI [12, 20] is reported as 0.44. For the same compound, the “Comprehensive Evaluation” value [12] was “Synergism (0.3-0.7)”.

With `C=C1C[C@@H]2CC[C@@]34C[C@H]5O[C@H]6[C@@H](O3)[C@H]3O[C@H](CC[C@@H]3O[C@H]6[C@H]5O4)CC(=O)C[C@@H]3[C@@H](OC)[C@@H](C[C@H](O)CN)O[C@H]3C[C@H]3O[C@@H](CC[C@@H]1O2)C[C@@H](C)C3=C` [Eribulin, eribulin] the “IC50 Ratio” value [14] was 0.01, the CI ([14]; Reference Example Compound 55:other compound 1:0.01) was 1.02 and the CI ([14]; Reference Example Compound 55:other compound 1:0.03) was 0.89. For the same compound, the “Comprehensive Evaluation” value [14] was “Additive (0.9-1.10)”.

`Nc1cccc2c1CN(C1CCC(=O)NC1=O)C2=O` (centres unmarked) [Lenalidomide, lenalidomide] was tested, and the “IC50 Ratio” value [13] was 14, the CI [13, 20] was 0.75 and the CI ([13]; Reference Example Compound 55:other compound 1:30) was 0.69. For the same compound, the “Comprehensive Evaluation” value [13] was “Moderate”.

`CN1CCOc2c1ccc(F)c2C#Cc1cn([C@@H]2O[C@H](CNS(N)(=O)=O)[C@@H](O)[C@H]2O)c2ncnc(N)c12` [Reference Example 64, 8-[2-[4-Amino-7-[(2R,3R,4S,5R)-3,4-dihydroxy-5-[(sulfamoylamino)methyl]tetrahydrofuran-2-yl]pyrrolo[2,3-d]pyrimidin-5-yl]ethynyl]-7-fluoro-4-methyl-2,3-dihydro-1,4-benzoxazine] showed an IC50 [1] of 140 nM, an IC50 [2] of 32 nM and an IC50 [3] of 14 nM. For the same compound, the IC50 [4] was 1200 nM, the IC50 [5] was 110 nM and the IC50 [7] was 91 nM. For the same compound, the IC50 [8] was 680 nM, the IC50 [9] was 560 nM and the IC50 [10] was 710 nM. It also gave an IC50 [11] of 5.8 nM.
